# Measurements published in patent publication US9758529B2, “Fused dihydro-4H-pyrazolo[5,1-C][1,4]oxazinyl compounds and analogs for treating CNS disorders” (Sunovion Pharmaceuticals Inc., priority 2015, dated 2017).
# Where a name gives a salt, the structure may show the parent alone.
# System: mice
# Experiment: Neuropharmacological Assay (SmartCube)
# Type: in vivo
# Details: i.p. 15 min before behavioral test; 3 doses, most efficacious dose(s) presented
Structure (SMILES),AD: ADHD (probability of class match),AG: analgesic (probability of class match),AX: anxiolytic (probability of class match),CE: cognitive enhancer (probability of class match),DP: anti-depressant (probability of class match),HA: hallucinogen (probability of class match),MS: mood stabilizer (probability of class match),PS: anti-psychotic (probability of class match),SD: sedative hypnotic (probability of class match),UN: uncharacterized CNS activity (probability of class match)
"CN1CC(C2OCCn3nc4ccccc4c32)C1.Cl (centres unmarked) [Compound 67, 3-(3,4-dihydro-1H-[1,4]oxazino[4,3-b]indazol-1-yl)-1-methylazetidin-1-ium chloride]",+ (LOQ≦ + <5%),+ (LOQ≦ + <5%),++ (5%≦ ++ <25%),+ (LOQ≦ + <5%),++ (5%≦ ++ <25%),+ (LOQ≦ + <5%),+ (LOQ≦ + <5%),+ (LOQ≦ + <5%),+ (LOQ≦ + <5%),+ (LOQ≦ + <5%)
"CN[C@H](C)[C@H]1OCCn2nc3ccccc3c21.Cl (relative stereo) [Compound 31, (+/−)-rel-(R)-1-((R)-3,4-dihydro-1H-[1,4]oxazino[4,3-b]indazol-1-yl)-N-methylethanaminium chloride]",+ (LOQ≦ + <5%),++ (5%≦ ++ <25%),+++ (25%≦ +++ <50%),++ (5%≦ ++ <25%),++ (5%≦ ++ <25%),+ (LOQ≦ + <5%),+ (LOQ≦ + <5%),++ (5%≦ ++ <25%),+ (LOQ≦ + <5%),+++ (25%≦ +++ <50%)
"Cl.NCC1OCCn2nc3cc(F)ccc3c21 (centres unmarked) [Compound 12, (8-fluoro-3,4-dihydro-1H-[1,4]oxazino[4,3-b]indazol-1-yl)methanaminium]",+ (LOQ≦ + <5%),+ (LOQ≦ + <5%),+ (LOQ≦ + <5%),+ (LOQ≦ + <5%),+ (LOQ≦ + <5%),+ (LOQ≦ + <5%),+ (LOQ≦ + <5%),+ (LOQ≦ + <5%),+ (LOQ≦ + <5%),+ (LOQ≦ + <5%)
"CC(C)NCC1OCCn2nc3ccccc3c21 (centres unmarked) [Compound 17, N-((3,4-dihydro-1H-[1,4]oxazino[4,3-b]indazol-1-yl)methyl)propan-2-amine]",+ (LOQ≦ + <5%),+ (LOQ≦ + <5%),++ (5%≦ ++ <25%),+ (LOQ≦ + <5%),++ (5%≦ ++ <25%),+ (LOQ≦ + <5%),+ (LOQ≦ + <5%),+ (LOQ≦ + <5%),+ (LOQ≦ + <5%),++ (5%≦ ++ <25%)
"CCNCC1OCCn2nc3ccccc3c21.Cl (centres unmarked) [Compound 18, N-((3,4-dihydro-1H-[1,4]oxazino[4,3-b]indazol-1-yl)methyl) ethanamine hydrogen chloride salt]",+ (LOQ≦ + <5%),++ (5%≦ ++ <25%),++ (5%≦ ++ <25%),++ (5%≦ ++ <25%),+ (LOQ≦ + <5%),+ (LOQ≦ + <5%),+ (LOQ≦ + <5%),++ (5%≦ ++ <25%),+ (LOQ≦ + <5%),+ (LOQ≦ + <5%)
"c1ccc2c3n(nc2c1)CCOC3CNC1CC1 (centres unmarked) [Compound 21, N-((3,4-dihydro-1H-[1,4]oxazino[4,3-b]indazol-1-yl)methyl)cyclopropan amine hydrogen chloride salt]",+ (LOQ≦ + <5%),++ (5%≦ ++ <25%),++ (5%≦ ++ <25%),+ (LOQ≦ + <5%),++ (5%≦ ++ <25%),+ (LOQ≦ + <5%),+ (LOQ≦ + <5%),++ (5%≦ ++ <25%),+ (LOQ≦ + <5%),+ (LOQ≦ + <5%)
"c1ccc2c3n(nc2c1)CCOC3CNC1CCC1 (centres unmarked) [Compound 16, N-((3,4-dihydro-1H-[1,4]oxazino[4,3-b]indazol-1-yl)methyl) cyclobutanamine]",+ (LOQ≦ + <5%),+ (LOQ≦ + <5%),+ (LOQ≦ + <5%),+ (LOQ≦ + <5%),+ (LOQ≦ + <5%),+ (LOQ≦ + <5%),+ (LOQ≦ + <5%),+ (LOQ≦ + <5%),+ (LOQ≦ + <5%),+ (LOQ≦ + <5%)
"CN1CCO[C@@H]([C@H]2OCCn3nc4ccccc4c32)C1 [Compound 26, (2R)-2-((S)-3,4-dihydro-1H-[1,4]oxazino[4,3-b]indazol-1-yl)-4-methylmorpholin-4-ium chloride]",+ (LOQ≦ + <5%),++ (5%≦ ++ <25%),+ (LOQ≦ + <5%),+ (LOQ≦ + <5%),++ (5%≦ ++ <25%),+ (LOQ≦ + <5%),+ (LOQ≦ + <5%),+ (LOQ≦ + <5%),+ (LOQ≦ + <5%),+ (LOQ≦ + <5%)
"c1ccc2c3n(nc2c1)CCOC31CNC1 [Compound 40, 3′,4′-dihydrospiro[azetidine-3,1′-[1,4]oxazino[4,3-b]indazol]-1-ium chloride]",+ (LOQ≦ + <5%),++ (5%≦ ++ <25%),+++ (25%≦ +++ <50%),++ (5%≦ ++ <25%),++ (5%≦ ++ <25%),+ (LOQ≦ + <5%),+ (LOQ≦ + <5%),++ (5%≦ ++ <25%),++ (5%≦ ++ <25%),+ (LOQ≦ + <5%)
"CN1CCC2(CC1)OCCn1nc3ccccc3c12.Cl [Compound 24, 1′-methyl-3,4-dihydrospiro[[1,4]oxazino[4,3-b]indazole-1,4′-piperidin]-1′-ium chloride]",+ (LOQ≦ + <5%),++ (5%≦ ++ <25%),++ (5%≦ ++ <25%),++ (5%≦ ++ <25%),++ (5%≦ ++ <25%),+ (LOQ≦ + <5%),+ (LOQ≦ + <5%),++ (5%≦ ++ <25%),+ (LOQ≦ + <5%),+ (LOQ≦ + <5%)

# Same assay, conditions: i.p. 15 min before behavioral test; 3 doses, most efficacious dose(s) presented
row,Structure (SMILES),XG: anxiogenic (probability of class match)
1,"CN1CC(C2OCCn3nc4ccccc4c32)C1.Cl (centres unmarked) [Compound 67, 3-(3,4-dihydro-1H-[1,4]oxazino[4,3-b]indazol-1-yl)-1-methylazetidin-1-ium chloride]",+ (LOQ≦ + <5%)
2,"CN[C@H](C)[C@H]1OCCn2nc3ccccc3c21.Cl (relative stereo) [Compound 31, (+/−)-rel-(R)-1-((R)-3,4-dihydro-1H-[1,4]oxazino[4,3-b]indazol-1-yl)-N-methylethanaminium chloride]",+ (LOQ≦ + <5%)
3,"Cl.NCC1OCCn2nc3cc(F)ccc3c21 (centres unmarked) [Compound 12, (8-fluoro-3,4-dihydro-1H-[1,4]oxazino[4,3-b]indazol-1-yl)methanaminium]",+ (LOQ≦ + <5%)
4,"CC(C)NCC1OCCn2nc3ccccc3c21 (centres unmarked) [Compound 17, N-((3,4-dihydro-1H-[1,4]oxazino[4,3-b]indazol-1-yl)methyl)propan-2-amine]",+ (LOQ≦ + <5%)
5,"CCNCC1OCCn2nc3ccccc3c21.Cl (centres unmarked) [Compound 18, N-((3,4-dihydro-1H-[1,4]oxazino[4,3-b]indazol-1-yl)methyl) ethanamine hydrogen chloride salt]",+ (LOQ≦ + <5%)
6,"c1ccc2c3n(nc2c1)CCOC3CNC1CC1 (centres unmarked) [Compound 21, N-((3,4-dihydro-1H-[1,4]oxazino[4,3-b]indazol-1-yl)methyl)cyclopropan amine hydrogen chloride salt]",+ (LOQ≦ + <5%)
7,"c1ccc2c3n(nc2c1)CCOC3CNC1CCC1 (centres unmarked) [Compound 16, N-((3,4-dihydro-1H-[1,4]oxazino[4,3-b]indazol-1-yl)methyl) cyclobutanamine]",+ (LOQ≦ + <5%)
8,"CN1CCO[C@@H]([C@H]2OCCn3nc4ccccc4c32)C1 [Compound 26, (2R)-2-((S)-3,4-dihydro-1H-[1,4]oxazino[4,3-b]indazol-1-yl)-4-methylmorpholin-4-ium chloride]",+ (LOQ≦ + <5%)
9,"c1ccc2c3n(nc2c1)CCOC31CNC1 [Compound 40, 3′,4′-dihydrospiro[azetidine-3,1′-[1,4]oxazino[4,3-b]indazol]-1-ium chloride]",+ (LOQ≦ + <5%)
10,"CN1CCC2(CC1)OCCn1nc3ccccc3c12.Cl [Compound 24, 1′-methyl-3,4-dihydrospiro[[1,4]oxazino[4,3-b]indazole-1,4′-piperidin]-1′-ium chloride]",+ (LOQ≦ + <5%)
